biological target: T1, MgCA (Malassezia globosa, UniProt A8Q1N3); assay: stopped-flow CO2 hydration assay, Cheng-Prusoff; format: biochemical
T1 construct: gene MGL_1814; recombinant, purified; dimer in the homology model; Zn ligands C47, H103, C106
T1 sequence (A8Q1N3 1-241): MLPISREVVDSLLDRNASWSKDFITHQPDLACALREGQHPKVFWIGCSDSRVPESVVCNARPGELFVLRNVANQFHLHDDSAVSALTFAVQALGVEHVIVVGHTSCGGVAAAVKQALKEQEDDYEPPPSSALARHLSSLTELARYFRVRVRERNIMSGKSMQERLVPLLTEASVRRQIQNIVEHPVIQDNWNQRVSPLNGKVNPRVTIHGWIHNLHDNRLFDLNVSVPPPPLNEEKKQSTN

SMILES	Ki
O=C(S)N1CCOCC1 [compound 10, 10]	7.65 µM
CC(C)CN(CC(C)C)C(=O)S [compound 6, 6]	8.61 µM
O=C(S)N1CCN(c2ccc(C(F)(F)F)cc2)CC1 [compound 13, 13]	4.22 µM
O=C(S)N1CCN(c2cccc(Cl)c2)CC1 [compound 14, 14]	15.9 µM
S=C(S)OCCc1ccccc1 [compound 17, 17]	16.2 µM
CCCN(CCC)C(=O)S [compound 4, 4]	1.85 µM
CCCCN(CC)C(=O)S [compound 7, 7]	5.26 µM
O=C(S)N1CCN(c2ccc(F)cc2)CC1 [compound 12, 12]	8.33 µM
CN(Cc1ccccc1)C(=O)S [compound 9, 9]	7.61 µM
O=C(CN1CCN(C(=O)S)CC1)NC1CCCCC1 [compound 15, 15]	6.13 µM
CCCCN(CCCC)C(=O)S [compound 5, 5]	7.52 µM
O=C(S)N1CCNCC1 [compound 11, 11]	7.41 µM
S=C(S)SCc1ccccc1 [compound 16, 16]	8.12 µM

Reference: publication PMC6010091, “Inhibition of the β-carbonic anhydrase from the dandruff-producing fungus Malassezia globosa with monothiocarbamates” (Journal of Enzyme Inhibition and Medicinal Chemistry, 2017)
